The values that follow come from patent US20160176914A1, “GLYCOSYLATED CARDIOTONIC STEROIDS” (priority 2013, published 2016).

Like-named read-outs stand apart in the source and are kept apart here.

The subject of series [1] is NCI-H460 cells. The series can be described thus: cells. Type of series: cell-based, Human. The note with it: for IC50: Homo sapiens, NCI-H460, H460 cells, read-out: IC50; for cytotoxicity / activity for H460 cells, in words: comparison. As for the experimental part:
Human non-small cell lung cancer cells (NCI-H460) were purchased from the American Type Culture Collection (Manassas, Va.). NCI-H460 cells were cultured in RPMI 1640 medium supplemented with 10% bovine fetal serum (FBS), 2 mM L-glutamine and 100-units/ml penicillin/streptomycin. All experiments with NCI-H460 cells were performed in medium enriched with 1% FBS serum, 2 mM L-glutamine and 100-units/ml penicillin/streptomycin. 1% FBS was used due to existing concerns about digitoxin binding to serum proteins.
Cells were seeded overnight in 96 well plates at a concentration of 1×10^4 cells/well, and then treated for 48 h with a log10 scale dilution series of the glycosylated CS compounds (e.g., digitoxin or D6-MA) dissolved in sterile filtered DMSO. Subsequently, 10 μl of 5 mg/ml MTT reagent was added to each well and then incubated for 4 h at 37° C. Isopropanol acidified with 0.04 N HCl was used to dissolve converted dye. Absorbance at 570 nm was measured using an Automated Microplate Reader ELx800 (BioTek, Winooski, Vt.). Each experiment was conducted 4 times with 4 replicate wells per concentration.
All results are presented as mean±standard deviation. For cell viability, ATPase activity and apoptosis assays, dose-response curves and concentrations that caused 50% effect (i.e. IC50) were calculated for the prepared compounds listed in Tables 1-3 in all the cell lines tested using non-linear regression analysis in GraphPad Prism 5.0 (San Diego, Calif.). Two-way analysis of variance (ANOVA) and unpaired two-tailed Student's t-test with α=0.05 were performed to compare the effect of compounds and administered dose on cell viability, apoptosis and quantified protein expression data. Post-hoc Tukey-Kramer HSD tests were conducted on significant ANOVA results. Results were considered significant when p≦0.05.

Series [2] relates to HCMV. The series can be described thus: Anti-CMV activity assay, inhibition of HCMV replication in infected HFFs. It counts as cell-based, human Cytomegalovirus (HCMV). The conditions noted are these: anti-HCMV activity in infected HFFs; read-out: EC50. As to the method: It has been observed that the infection of human foreskin fibroblasts (HFF) cells with HCMV causes an up regulation of the α3-isoform of the Na^+/K^+-Pump. Therefore the inhibition of HCMV replication by the compounds described herein was tested using procedure described by Cai, H. et al., in Med. Chem. Lett. 2014, 5, 395-399, which is incorporated by reference in its entirety. Generally, inhibition of Towne HCMV: pp28-luciferase activity was measured in cell lysates of HCMV-infected HFFs collected at 72 h post infection (hpi). Virus DNA yield in supernatants of HCMV-infected cells collected at 96 hpi was measured by real-time PCR. Plaque reduction assay performed at 8 days postinfection. Data represent mean values (±SD) of triplicate determinations from three independent experiments.
Inhibition of TB40 HCMV: HFFs were infected with HCMV-TB40 strain at MOI of 1 pfu/cell and treated with compounds listed in Tables 1-3 for 3 days.
The glycosylated cardiotonic steroid compounds were tested for their anti-cytomegalovirus (CMV) activity. Specifically, the compounds were tested for the ability to inhibit HCMV replication. For each compound, the anti-HCMV activity in infected HFFs was expressed as EC50, whereas cytotoxicity in noninfected HFFs was expressed as CC50. Selectivity index (SI), defined as CC50/EC50, was calculated for each compound.

Take `CC1O[C@@H](O[C@H]2CCC3(C)C(CC[C@@H]4C3CCC3(C)[C@@H](C5=CC(=O)OC5)CC[C@]43O)C2)C(O)C(O)[C@H]1N` (stereo in doubt) [Compound 2.1, digitoxigenin α-L-4-amino-rhamnopyranoside]: the IC50 in series [1] (Table 5, compounds of Table 2) was found to be 5.1 nM. Besides, in series [1], the “cytotoxicity / activity for H460 cells, in words” value (from here on “cytotoxicity / activity”) is “improved cytotoxicity”. On the same counts, the results for `CC1O[C@@H](OC2C(O)[C@H](O[C@H]3CCC4(C)C(CC[C@@H]5C4CCC4(C)[C@@H](C6=CC(=O)OC6)CC[C@]54O)C3)OC(C)[C@@H]2O)C(O)C(O)[C@H]1O` (stereo in doubt) [Compound 2.3, digitoxigenin α-L-rhamnopyranosyl-(1 → 3)-α-L-rhamnopyranoside] are 45.5 nM and “does not significantly reduce activity”. As to `CC1O[C@H](OC2C(O)[C@H](O[C@H]3CCC4(C)C(CC[C@@H]5C4CCC4(C)[C@@H](C6=CC(=O)OC6)CC[C@]54O)C3)OC(C)[C@@H]2O)C(O)C(O)[C@@H]1O` (stereo in doubt) [Compound 2.4, digitoxigenin α-D-rhamnopyranosyl-(1 → 3)-α-L-rhamnopyranoside], in series [1] (Table 5, compounds of Table 2), the IC50 came to 332 nM. Same read-out and setting: as for `CC1O[C@H](OC2C(O)[C@H](OC3C(O)[C@H](O[C@H]4CCC5(C)C(CC[C@@H]6C5CCC5(C)[C@@H](C7=CC(=O)OC7)CC[C@]65O)C4)OC(C)[C@@H]3O)OC(C)[C@@H]2O)C(O)C(O)[C@@H]1O` (stereo in doubt) [Compound 2.9, digitoxigenin α-D-rhamnopyranosyl-(1 → 3)-α-L-rhamnopyranosyl-(1 → 3)-α-L-rhamnopyranoside], the figure is 86 nM. Turning to `CC1O[C@@H](OC2C(O)[C@H](OC3C(O)[C@H](O[C@H]4CCC5(C)C(CC[C@@H]6C5CCC5(C)[C@@H](C7=CC(=O)OC7)CC[C@]65O)C4)OC(C)[C@@H]3O)OC(C)[C@@H]2O)C(O)C(O)[C@H]1O` (stereo in doubt) [Compound 2.10, digitoxigenin α-L-rhamnopyranosyl-(1 → 3)-α-L-rhamnopyranosyl-(1 → 3)-α-L-rhamnopyranoside], the IC50 in series [1] (Table 5, compounds of Table 2) turned out to be 50.6 nM. Consider `C[C@@H]1O[C@@H](O[C@H]2CC[C@@]3(C)[C@H](CC[C@@H]4[C@@H]3C[C@@H](O)[C@]3(C)[C@@H](C5=CC(=O)OC5)CC[C@]43O)C2)CC[C@H]1O` (stereo in doubt) [Compound 3.3, digoxigenin α-L-amecitopyranoside], for which the IC50 in series [1] (Table 6, compounds of Table 3) is 54 nM. Besides, the “cytotoxicity / activity” value in series [1] is “more active than the diastereomeric α-D-sugars”. Regarding `C[C@@H]1O[C@@H](O[C@H]2CC[C@@]3(C)[C@H](CC[C@@H]4[C@@H]3C[C@@H](O)[C@]3(C)[C@@H](C5=CC(=O)OC5)CC[C@]43O)C2)[C@H](O)[C@H](O)[C@H]1O` (stereo in doubt) [Compound 3.7, digoxigenin α-L-rhamnopyranoside], the IC50 in series [1] (Table 6, compounds of Table 3) worked out at 19 nM. The “cytotoxicity / activity” value in series [1] is “more active than the diastereomeric α-D-sugars”.

Consider `CC1O[C@@H](O[C@H]2CCC3(C)C(CC[C@@H]4C3CCC3(C)[C@@H](C5=CC(=O)OC5)CC[C@]43O)C2)CC[C@H]1N` (stereo partly drawn) [Compound 2.2, digitoxigenin α-L-4-amino-amecitopyranoside], for which the IC50 in series [1] (Table 5, compounds of Table 2) worked out at 3.1 nM. In series [1], the “cytotoxicity / activity” value is recorded as “improved cytotoxicity”. As to `CC1OC(O[C@H]2CCC3(C)C(CCC4C3CCC3(C)[C@@H](C5=CC(=O)OC5)CC[C@]43O)C2)C(O)C(OC2CC[C@@H](O)C(C)O2)[C@H]1O` (stereo partly drawn) [Compound 2.5, [2,3-dihydro-4-hydroxy-α-L-Amip-(1→3)-2,4-dihydroxy-α-L-Rhap]-Dig], the IC50 in series [1] (Table 5, compounds of Table 2) was found to be 389 nM. With `CC1OC(O[C@H]2CCC3(C)C(CCC4C3CCC3(C)[C@@H](C5=CC(=O)OC5)CC[C@]43O)C2)C(O)C(OC2CC[C@H](O)C(C)O2)[C@H]1O` (stereo partly drawn) [Compound 2.6, [2,3-dihydro-4-hydroxy-α-D-Amip-(1→3)-2,4-dihydroxy-α-L-Rhap]-Dig], the IC50 in series [1] (Table 5, compounds of Table 2) turned out to be 651 nM. As for `CC1O[C@H](O[C@H]2C(C)O[C@@H](O[C@H]3CCC4(C)C(CC[C@@H]5C4CCC4(C)[C@@H](C6=CC(=O)OC6)CC[C@]54O)C3)C(O)C2O)C(O)C(O)[C@@H]1O` (stereo partly drawn) [Compound 2.7, digitoxigenin α-D-rhamnopyranosyl-(1 → 4)-α-L-rhamnopyranoside], the IC50 in series [1] (Table 5, compounds of Table 2) was 70 nM. The “cytotoxicity / activity” value in series [1] is “much greater activity”. Take `C[C@H]1O[C@H](O[C@H]2CC[C@@]3(C)[C@H](CC[C@@H]4[C@@H]3C[C@@H](O)[C@]3(C)[C@@H](C5=CC(=O)OC5)CC[C@]43O)C2)CC[C@@H]1O` [Compound 3.1]: in series [1] (Table 6, compounds of Table 3), the IC50 turned out to be 253 nM.

In the case of `C[C@H]1O[C@H](O[C@H]2CC[C@@]3(C)[C@H](CC[C@@H]4[C@@H]3C[C@@H](O)[C@]3(C)[C@@H](C5=CC(=O)OC5)CC[C@]43O)C2)[C@@H](O)[C@@H](O)[C@@H]1O` [Compound 3.2], in series [1] (Table 6, compounds of Table 3), the IC50 was 486 nM. Take `CC(=O)O[C@@H]1C[C@H]2[C@@H](CC[C@@H]3C[C@@H](O[C@H]4CC[C@@H](O)[C@H](C)O4)CC[C@@]32C)[C@@]2(O)CC[C@H](C3=CC(=O)OC3)[C@@]12C` [Compound 3.4]: in series [1] (Table 6, compounds of Table 3), the concentration for half-maximal inhibition (IC50) is 3440 nM.

As to `C[C@@H]1O[C@@H](O[C@H]2CC[C@@]3(C)[C@H](CC[C@@H]4[C@@H]3C[C@@H](OC(=O)C(C)(C)C)[C@]3(C)[C@@H](C5=CC(=O)OC5)CC[C@]43O)C2)CC[C@H]1O` [Compound 3.5], the IC50 in series [1] (Table 6, compounds of Table 3) was ≥ 50000 nM. Also, in series [1], the “cytotoxicity / activity” value is reported as “greatly reduced activity”. As for `C[C@@H]1O[C@@H](O[C@H]2CC[C@@]3(C)[C@H](CC[C@@H]4[C@@H]3C[C@@H](O[Si](C)(C)C(C)(C)C)[C@]3(C)[C@@H](C5=CC(=O)OC5)CC[C@]43O)C2)CC[C@H]1O` [Compound 3.6], the IC50 in series [1] (Table 6, compounds of Table 3) came out at 29700 nM. For the compound `CC(=O)O[C@@H]1C[C@H]2[C@@H](CC[C@@H]3C[C@@H](O[C@@H]4O[C@@H](C)[C@H](O)[C@@H](O)[C@H]4O)CC[C@@]32C)[C@@]2(O)CC[C@H](C3=CC(=O)OC3)[C@@]12C` [Compound 3.8], the IC50 in series [1] (Table 6, compounds of Table 3) is 5980 nM. As to `C[C@@H]1O[C@@H](O[C@H]2CC[C@@]3(C)[C@H](CC[C@@H]4[C@@H]3C[C@@H](OC(=O)CCl)[C@]3(C)[C@@H](C5=CC(=O)OC5)CC[C@]43O)C2)[C@H](O)[C@H](O)[C@H]1O` [Compound 3.9], in series [1] (Table 6, compounds of Table 3), the IC50 is 105 nM.

As for `C[C@@H]1O[C@@H](O[C@H]2CC[C@@]3(C)[C@H](CC[C@@H]4[C@@H]3C[C@@H](OC(=O)C(C)(C)C)[C@]3(C)[C@@H](C5=CC(=O)OC5)CC[C@]43O)C2)[C@H](O)[C@H](O)[C@H]1O` [Compound 3.10], the IC50 in series [1] (Table 6, compounds of Table 3) was ≥ 50000 nM. In addition, in series [1], the “cytotoxicity / activity” value is listed as “greatly reduced activity”.

In the case of `C[C@@H]1O[C@@H](O[C@H]2CC[C@@]3(C)[C@H](CC[C@@H]4[C@@H]3C[C@@H](O[Si](C)(C)C(C)(C)C)[C@]3(C)[C@@H](C5=CC(=O)OC5)CC[C@]43O)C2)[C@H](O)[C@H](O)[C@H]1O` [Compound 3.11], in series [1] (Table 6, compounds of Table 3), the IC50 amounted to 2250 nM. Consider α-D-Mannose, for which the EC50 in series [2] is 7.31 ± 0.12 nM.

By IC50 is commonly meant the point on the concentration scale where inhibition reaches its midpoint. Broadly, the EC50 is the concentration at which the effect is half-maximal.
